The text below walks through data of patent US20250388597A1, “BIFUNCTIONAL PHOTOCROSSLINKING PROBES FOR COVALENT CAPTURE OF PROTEIN-NUCLEIC ACID COMPLEXES IN CELLS” (UNIVERSITY OF SOUTHERN CALIFORNIA, priority 2022, published 2025).

The subject of assay [1] is double stranded DNA and RNA. The note with it: cited from earlier work; for efficiency of covalent crosslinking to DNA: long-wavelength (˜360 nm) UV illumination.
Assay [2] concerns the target T1, NFAT1/DNA complex (Homo sapiens, UniProt Q13469).
T1 construct: human NFAT1 protein (residue 399-676, NFAT1-DBD)
T1 sequence (Q13469 399-676): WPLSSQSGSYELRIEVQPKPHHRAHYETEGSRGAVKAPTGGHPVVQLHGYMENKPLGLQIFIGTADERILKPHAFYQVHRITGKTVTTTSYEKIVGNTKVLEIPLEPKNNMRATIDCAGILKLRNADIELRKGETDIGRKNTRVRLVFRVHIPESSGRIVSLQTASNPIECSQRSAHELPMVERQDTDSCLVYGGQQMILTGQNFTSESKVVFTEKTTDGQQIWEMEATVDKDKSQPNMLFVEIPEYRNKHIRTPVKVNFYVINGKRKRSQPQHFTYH
Nature of the assay: In vitro photo-crosslinking of assembled NFAT1/DNA complex, denaturing SDS gel. The format is biochemical. The settings on record: for formation of covalent NFAT1/DNA crosslinked complex stable under denaturing SDS-PAGE: probe + UV 365 nm, 2% SDS, boil 10 min. As to the method:
The probe binding and UV crosslinking were carried out as described in FIG. 5G and FIG. 7. The crosslinked complexes (lane 3 and lane 6) were further treated with DTT (100 mM, heat 50 degree C. for 30 min). The reaction mixtures were run on SDS gel and visualized by FAM fluorescence for DNA (top) and by Coomassie blue stain for protein (bottom) as described in FIG. 7. FIG. 7 depicts denaturing SDS gel analysis of covalent capture of in vitro assembled MEF2/DNA and NFAT1/DNA complexes by the BFPX probe, SPB-AAD. […] The protein/DNA complexes are incubated at room temperature for 30 min, and treated with various combination of BFPX probe (SPB-AAD) and UV illumination as described in FIG. 5G. […] The reaction mixtures were added SDS loading dye (2% SDS), boil for 10 min, and run on SDS gel (Bio-Rad Any Kd gradient gel). The same gel was visualized by FAM fluorescence for DNA (top) and by Coomassie blue stain for protein (bottom). FIG. 8C depicts denaturing SDS gel analysis of covalent capture of in vitro assembled MEF2/DNA and NFAT1/DNA complexes by the BFPX probe, SPB-PEG3-AAD. […] The reaction mixtures were run on SDS gel and visualized by FAM fluorescence for DNA (top) and by Coomassie blue stain for protein (bottom) as described in FIG. 7. […] Typically protein and DNA are mixed to bind at room temperature for 30 min, followed by addition of BFPX probes for an additional 15 min and then UV illumination. In the case of FA treatment, the reaction time is 10 min at room temperature and then quenched by 250 mM glycine. […] The UV illumination (as indicated by a positive sign) was carried out using a LED Chip (21.4 mm×21.4 mm, 365-370 nm, 30 Watt, sample distance 2 cm, exposure time 2-15 min at 4 degree C., here the exposure time is 15 min). […] The small amount of single stranded DNA is due to incomplete annealing. The higher smearing bands are most likely non-specific protein complexes. Neither of these experimental imperfections affected the main conclusion of this experiment because the double stranded-DNA bands and the specific NFAT-DNA complex bands (the middle sharp bands) are well defined and can be monitored without the interference of the other bands. […] The gel was visualized by Cy5 fluorescence for DNA. FIG. 12E depicts further characterization of BFPX crosslinking of NFAT1/DNA complexes using different DNA substrates and staining techniques. Two unlabeled DNA substrates containing a core NFAT-binding site and different flanking bases and sequence lengths ([…] ID NO: 4), 21 mer, c2: [NT] ID NO: 5), 16 mer) were used to bind the NFAT1-DBD as described in FIG. 12C. […] The reactions were then analyzed by SDS PAGE under denaturing condition as described in FIG. 12D. Because the DNA is unlabeled, the gel was stained using either cyanine-based dye (SYBR Safe) or Coomassie Blue stain (CB). […] The different size of the NFAT-c1DNA complexes (lane 2) and NFAT-c2DNA complexes (lane 4) was resolved by loading reactions of lane 2 (2a, 2b and 2c) and lane 4 (4a, 4b and 4c) as triplicates side-by-side on the same gel (lower panel) using either SYBR and CB stain. FIG. 12F depicts time course of BFPX crosslinking of NFAT1/DNA complexes. […] The reactions at different time points were then analyzed on SDS gel as described in FIG. 12D. […] When the UV exposure time is longer than 5 min, a significant amount of crosslinked NFAT-DNA complex can be formed with UV illumination without SPB-AAD.

The target in assay [3] is T2, MEF2A/DNA complex (Homo sapiens, UniProt Q02078).
T2 construct: human MEF2A DBD (residues 2-95); made in house
T2 sequence (Q02078 2-95): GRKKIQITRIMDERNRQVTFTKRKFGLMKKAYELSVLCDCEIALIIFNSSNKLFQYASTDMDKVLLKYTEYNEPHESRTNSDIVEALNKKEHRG
Nature of the assay: In vitro photo-crosslinking of assembled MEF2/DNA complex, read on denaturing SDS/urea gel or agarose gel. It counts as biochemical. The text has this: In vitro assays have confirmed the success and the efficiency of the demo probe (AMT-LC-SDA) in crosslinking double strand DNA of various contents and DNA-binding protein human myocyte enhancer factor 2A (MEF2A) (1-95 aa) (FIG. 5C-FIG. 5E). The solid crosslinking is confirmed for the probe with UV photo crosslinking conditions by denaturing or digestive approaches such as running with 8.3 M urea gel, SDS gel, combined with sample with overnight digestion of proteinase K at 65 Celsius and denatured at high temperature of 95 Celsius with SDS loading dye. […] Under these harsh evaluation conditions, the protein got digested on the crosslinking complex thoroughly, yet the remaining crosslinked amino acids residuals still have made the DNA to be in a larger size and shifted clearly compared to other controls, which is indicated by the bold shaped arrow. Agarose gel was also used for its bigger pore size to estimate the crosslinking efficiency (UV 2 hrs), estimated by the amount of the left free DNA, our probe has reached around 30-60% efficiency (FIG. 5E), which is much higher than the UV-initiated protein DNA crosslinking without the use of a probe (10-20%) as reported in Nature Communications, volume 11, Article number: 3019 (2020). […] This further supports the idea of applying this probe for replacement of formaldehyde, it crosslinks the protein only within the proximity of nucleic acids, thereby largely reducing the random protein-protein crosslinking noise and helps to preserve the native state of protein epitopes.
The BFPX probe 4AMT-LC-SDA was synthesized with good yield by the NHS-amine chemistry using psoralen and diazirine derivatives (FIG. 5A, FIG. 5B). To test its photo crosslinking ability, human transcription factor MEF2A (the MADS-box/MEF2 domain) and double strand DNA containing a MEF2 binding site were used. We first used electrophoresis mobility shift assay (EMSA) to validate the activity of the purified recombinant MEF2A DNA-binding domain. After finding out the optimal protein to DNA ratio, the in vitro assembled MEF2/DNA complex was then subject to photocrosslinking in the presence or absence of the 4AMT-LC-SDA probe with or without UV illumination. Multiple other control experiments were carried out in parallel to test the specificity of photocrosslinking between the DNA and MEF2. Specifically, parameters such as protein/DNA amounts (1:[…]), ratio, UV time (10 m to 4 hrs), wavelength (320 to 360 nm), LV source (mercury long lamp, LED) and their distance to the reaction mixture have been optimized along the course. The MEF2 Protein and DNA were incubated first to mimic an in vivo binding mode and stoichiometry, and then the mixture was incubated with our 4AMT-LC-SDA probe to undergo UV illumination. The results were evaluated by running denaturing gels (SDS in FIG. 5D, or Urea in FIG. 5C) against the high temperature denatured reaction mixtures and checking the respective protein (silver stain) or DNA (FAM label) signals. To further rule out any other possible false positiveness during loading, proteinase K digestion was applied to all the samples including the negative controls with SDS at 65 degrees.

Assay [4] concerns the target T3, DNA binding by NFAT1 (Homo sapiens, UniProt Q13469).
T3 construct: human NFAT1 protein (residue 399-676, NFAT1-DBD)
T3 sequence (Q13469 399-676): T1 sequence (Q13469 399-676)
Description: Native EMSA of the effect on DNA binding by NFAT1. It counts as biochemical. The settings on record: FIG. 12C; increasing concentrations; probes with UV 365 nm 15 min; compared to control lane 3.
Description: All binding reactions contain 10 μM 27 mer dsDNA (5′6-FAM labeled) with a NFAT-binding site, and various combinations of NFAT1 protein (14 μM), FA (1% v/v), 4AMT-LC-SDA (20 μM), with or without UV illumination (365 nm, LED, 30 Watt, sample distance 2 cm, exposure time 15 min at 4 degree C.). 10 μl of the binding reaction is run on a 10% PAGE 0.5×TBE gel. The same gel was visualized by FAM fluorescence for DNA (top) and by Coomassie blue stain for protein (bottom). The higher smearing bands in lane 3, 8, 9, and 10 are most likely non-specific protein complexes often seen when an excessive amount of protein is used to ensure all DNA is bound.
The binding reactions were performed in a buffer of 20 mM Hepes pH 7.6, 150 mM NaCl, 1 mM DTT, 12% glycerol. Typically protein and DNA are mixed to bind at room temperature for 30 min, followed by addition of BFPX probes for an additional 15 min and then UV illumination. In the case of FA treatment, the reaction time is 10 min at room temperature and then quenched by 250 mM glycine. When included (as indicated by a positive sign), the binding reaction contains 10 μM 27 mer dsDNA (Cy5-labeled) with a NFAT-binding site (the antigen receptor response element 2, ARRE2, from the IL-2 promoter, 5′-Cy5-[sequence]-3′ (SEQ ID NO: 2), the complementary strand is not labeled), 24 μM of the DNA binding domain (DBD) of human NFAT1 protein (residue 399-676, NFAT1-DBD). The UV illumination (as indicated by a positive sign) was carried out using a LED Chip (21.4 mm×21.4 mm, 365-370 nm, 30 Watt, sample distance 2 cm, exposure time 2-15 min at 4 degree C., here the exposure time is 15 min). Half of the binding reaction (7.5 μl) was run on a 10% PAGE 0.5×TBE gel and visualized by Cy5 fluorescence on DNA. The small amount of single stranded DNA is due to incomplete annealing. The higher smearing bands are most likely non-specific protein complexes. Neither of these experimental imperfections affected the main conclusion of this experiment because the double stranded-DNA bands and the specific NFAT-DNA complex bands (the middle sharp bands) are well defined and can be monitored without the interference of the other bands.
The presence of both DNA and protein in the same shifted band can be checked by the FAM fluorescence signal (top) and Coomassie stain (bottom), respectively (free NFAT is positively charged and not observable under the EMSA condition).

For assay [5], the target named is T4, Nkx2.5/DNA complex (Homo sapiens, UniProt P52952).
T4 construct: human Nkx2.5 DBD (the homeodomain); made in house
T4 sequence (P52952 138-197 limits assumed, one chain of several): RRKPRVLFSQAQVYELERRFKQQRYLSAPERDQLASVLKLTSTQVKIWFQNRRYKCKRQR
Description: BFPX crosslinking of Nkx2.5/DNA complexes, SDS PAGE. It counts as biochemical. The settings on record: denaturing SDS PAGE; probes with UV. As to the method:
FIG. 12H depicts BFPX crosslinking of Nkx2.5/DNA complexes. […] The various treatment combinations were list above the gel. The reactions were then analyzed by SDS PAGE under denaturing condition as described in FIG. 12D.

The target of assay [6] is T5, p53/DNA complex (Homo sapiens, UniProt P04637).
T5 construct: the human tumor suppressor p53 DBD; made in house
T5 sequence (P04637 102-292 limits assumed, one chain of several): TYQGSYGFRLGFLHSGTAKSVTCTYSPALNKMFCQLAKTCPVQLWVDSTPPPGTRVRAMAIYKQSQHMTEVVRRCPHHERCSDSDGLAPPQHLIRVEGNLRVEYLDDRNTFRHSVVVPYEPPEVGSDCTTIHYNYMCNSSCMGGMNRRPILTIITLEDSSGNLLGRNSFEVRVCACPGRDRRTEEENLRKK
Nature of the assay: BFPX crosslinking of p53/DNA complexes, SDS PAGE. The format is biochemical. The settings on record: denaturing SDS PAGE; probes with UV; vs no-protein controls. As to the method: FIG. 12I depicts BFPX crosslinking of p53/DNA complexes. The binding reactions between the human tumor suppressor p53 DBD and a 37 mer Cy5 labeled DNA containing a consensus p53 tetramer binding site (5′-/5Cy5/-[…]-3′, (SEQ ID NO: 8)) were set up and treated with BFPX probes and UV illumination as described in FIG. 12C. The various treatment combinations were list above the gel. The reactions were then analyzed by SDS PAGE under denaturing condition as described in FIG. 12D. […] Because p53 bind this this DNA substrate as a tetramer, crosslinked p53/DNA complexes may contain one or more p53 protein molecules. While the monomeric p53/DNA complex appears to be the dominant crosslinked protein-DNA complexes, higher-molecule weight species were visible in SDS gel, which may correspond to crosslinked higher-order p53/DNA complex.

“Also recorded” adds a separate entry of the source.

As for `Cc1oc2c(C)c3oc(=O)cc(C)c3cc2c1CN` [4AMT, 4′-aminomethyltrioxsalen], the “efficiency of covalent crosslinking to DNA” value in assay [1] is listed as “up to 80%”.
Regarding `Cc1oc2c(C)c3oc(=O)cc(C)c3cc2c1CNC(=O)CCSSCCNC(=O)CCC1(C)N=N1` [4AMT-SDAD], in assay [2] (25 μM probe, DTT 100 mM, 50 degree C., 30 min, FIG. 5H), the “effect of DTT treatment on the crosslinked NFAT-DNA complex” value is “reduced significantly”. In addition, the “formation of covalent NFAT1/DNA crosslinked complex stable under denaturing SDS-PAGE” value in assay [2] (listed as 4AMT-LC-SDAD) is given as “highly efficient crosslinking; also recorded: crosslinked NFAT to its DNA substrate efficiently”. The “release of crosslinked MEF2/DNA complexes by reductive cleavage” value in assay [3] (probe 10-100 μM, UV 15 min, 200 mM TCEP at 37° C. overnight) is “can be released by reductive cleavage of the disulfide bond”. In assay [3] (probe + UV, denaturing gel), the “formation of covalent MEF2/DNA crosslinked complex” value is recorded as “highly efficient crosslinking”.
Take `O=c1ccc2cc3ccoc3cc2o1` [Psoralen, psoralen]: in assay [1], the “affinity for double stranded DNA and RNA” value is listed as “μM (Kd) affinity”; the “efficiency of covalent crosslinking to DNA” value is “up to 80%”.
With `CC1(CCC(=O)NCCCCCC(=O)NCCCCNCCCNC(=O)CCCOc2c3occc3cc3ccc(=O)oc23)N=N1` [SPB-Spermidine-AD, 6-(3-(3-methyl-3H-diazirin-3-yl)propanamido)-N-(4-((3-(4-((7-oxo-7H-furo[3,2-g]chromen-9-yl)oxy)butanamido)propyl)amino)butyl)hexanamide], the “effect on the binding of NFAT1 to DNA” value in assay [4] is “little or no effect”. Moreover, in assay [5], the “crosslinking of the Nkx2.5/DNA complex” value is given as “significant crosslinking of the Nkx2.5/DNA complex”. For the same compound, in assay [2], the “apparent crosslinking efficiency (intensity of the complex band over the total DNA intensity)” value is 22.5%, the “crosslinking efficiency normalized against the total protein/DNA complex” value is listed as approximately 47% and the “formation of covalent NFAT1/DNA crosslinked complex stable under denaturing SDS-PAGE” value is listed as “dosage dependent crosslinking of NFAT1/DNA complexes”. Besides, the “crosslinking of the p53/DNA complex” value in assay [6] is given as “significant crosslinking of the p53/DNA complex”.
